We go through three compounds from patent publication US20070202138A1, “ANTIMICROBIAL COMPOSITIONS AND METHOD” (BIOFILM INNOVATIONS GROUP, LLC, priority 2006, published 2007).

Data set [1] in a line: in vitro cytotoxicity, plating efficiency. The note with it: mouse.
Description: The cells are grown in humidified incubators at 37° C. in an atmosphere of 5% carbon dioxide/air (v/v).
The next data set can be described thus: in vitro. The note with it: mouse.

Structures are written as SMILES. ≈ marks a conversion by molar mass, not a printed value.

Consider `O=BOB(O)OB(O)OB=O` [borax], for which the CC50 in data set [1] worked out at 2000 µg/mL (≈ 12.7 mM).
`CC(=O)Nc1ccc(O)cc1` [acetaminophen]: the CC50 in the data set “in vitro” is 1000 µg/mL (≈ 6.62 mM).
The same measure, in the same setting: to `CC(=O)Oc1ccccc1C(=O)O` [aspirin] belongs 1500 µg/mL (≈ 8.33 mM).
